Data taken from publication PMC3964607 (Nuclear medicine and biology, 2013).

How the values were obtained:
[1] = rats; cited from earlier work
[2] = Biodistribution in normal rats; type: in vivo, rats (Sprague–Dawley); conditions: mean ± SD; for Percent injected dose in blood: i.v. tail vein
[3] = Biodistribution in rats with renal pedicle ligation; type: in vivo, rats (Sprague–Dawley)
[4] = Sprague-Dawley rats; cited from earlier work
[5] = rats with renal pedicle ligation, 60 min post-injection, mean ± SD, n=5

N#Cc1cc(C(=O)NCC(=O)O)ccc1[18F] [^18F-CNPFH, ^18F-m-cyano-p-fluorohippurate]
Route of elimination [1]: eliminated by both renal and hepatobiliary pathways

O=C(O)CNC(=O)c1ccc([18F])cc1 [^18F-PFH, ^18F-p-fluorohippurate]
Route of elimination [1]: rapidly and exclusively cleared by the kidneys

O=C(O)CNC(=O)c1ccccc1[131I] [^131I-OIH, ^131I-o-iodohippurate]
Percent injected dose in blood ([2]; 10 min post-injection, n=7): 5.1 ± 0.5 % ID | Percent injected dose in bowel (intestines and stomach) ([2]; 10 min post-injection, n=7): 1.7 ± 0.5 % ID | Percent injected dose in kidney ([2]; 10 min post-injection, n=7): 5.3 ± 1.2 % ID | Percent injected dose in liver ([2]; 10 min post-injection, n=7): 3.3 ± 0.2 % ID | Percent injected dose in urine ([2]; 10 min post-injection, n=7): 50.8 ± 5.2 % ID | Percent injected dose in blood ([2]; 60 min post-injection, n=5): 0.8 ± 0.1 % ID | Percent injected dose in bowel (intestines and stomach) ([2]; 60 min post-injection, n=5): 1.8 ± 0.3 % ID | Percent injected dose in kidney ([2]; 60 min post-injection, n=5): 0.7 ± 0.4 % ID | Percent injected dose in liver ([2]; 60 min post-injection, n=5): 0.6 ± 0.2 % ID | Percent injected dose in urine ([2]; 60 min post-injection, n=5): 85.4 ± 3.1 % ID | Percent injected dose remaining in the spleen, heart and lung ([3]; rats with ligated renal pedicles, 60 min): less than 1% | Percent injected dose in blood [3, 5]: 15.1 ± 0.9 % ID | Percent injected dose in bowel (intestines and stomach) [3, 5]: 7.6 ± 1.1 % ID | Percent injected dose in kidney [3, 5]: 0.5 ± 0.2 % ID | Percent injected dose in liver [3, 5]: 7.1 ± 0.6 % ID

^125I-iothamalate
Clearance as percentage of the clearance of ^131I-OIH [4]: 40%
